Assay results taken from patent US20240389591A1, “CRYSTALLINE FORMS OF METHYL 2-[2-[2-BROMO-4-FLUORO-5-[3-METHYL-2,6-DIOXO-4-(TRIFLUOROMETHYL)PYRIMIDIN-1-YL]PHENOXY]PHENOXY]-2-METHOXY-ACETATE” (BASF SE, priority 2021, published 2024).

How the values were obtained:
Lolium multiflorum = experiment: Greenhouse herbicidal activity, post-emergence treatment; assay type: in vivo; details: assessment 20 DAT, aqueous SC 8.33 w/v %, scale 0-100
Excerpt: (§1) The culture containers used were plastic flowerpots containing loamy sand with approximately 3.0% of humus as the substrate. The seeds of the test plants were sown separately for each species.
(§2) For the post-emergence treatment, the test plants were first grown to a height of 3 to 15 cm, depending on the plant habit, and only then treated with the active ingredients which had been suspended or emulsified in water. For this purpose, the test plants were either sown directly and grown in the same containers, or they were first grown separately as seedlings and transplanted into the test containers a few days prior to treatment.
(§3) Depending on the species, the test plants were kept at 10-25° C. or 20-35° C., respectively. The test period extended over 2 to 4 weeks. During this time, the test plants were tended, and their response to the individual treatments was evaluated.
(§4) Evaluation was carried out using a scale from 0 to 100. 100 means no emergence of the test plants, or complete destruction of at least the aerial moieties, and 0 means no damage, or normal course of growth. A good herbicidal activity is given at values of at least 70 and a very good herbicidal activity is given at values of at least 85.
(§5) The abovementioned methods were used to compare, in a greenhouse test, form A according to the invention and, as comparison the compound of formula (I) in amorphous form, in each case formulated as aqueous suspension concentrate (SC; 8.33 w/v %).

Erigeron canadensis = experiment: as above; assay type: in vivo; details: assessment 20 DAT, aqueous SC 8.33 w/v %, scale 0-100
Excerpt: as §1, §2, §3, §4, §5

SMILES | Damage [%] (Lolium multiflorum; 2 g/ha a.i.) | Damage [%] (Lolium multiflorum; 4 g/ha a.i.) | Damage [%] (Lolium multiflorum; 8 g/ha a.i.) | Damage [%] (Lolium multiflorum; 16 g/ha a.i.) | Damage [%] (Erigeron canadensis; 2 g/ha a.i.) | Damage [%] (Erigeron canadensis; 4 g/ha a.i.)
COC(=O)C(OC)Oc1ccccc1Oc1cc(-n2c(=O)cc(C(F)(F)F)n(C)c2=O)c(F)cc1Br (stereo not drawn) [amorphous, methyl 2-[2-[2-bromo-4-fluoro-5-[3-methyl-2,6-dioxo-4-(trifluoromethyl)pyrimidin-1-yl]phenoxy]phenoxy]-2-methoxy-acetate] | 15 | 25 | 75 | 80 | 30 | 70
COC(=O)C(OC)Oc1ccccc1Oc1cc(-n2c(=O)cc(C(F)(F)F)n(C)c2=O)c(F)cc1Br (stereo not drawn) [Form A, methyl 2-[2-[2-bromo-4-fluoro-5-[3-methyl-2,6-dioxo-4-(trifluoromethyl)pyrimidin-1-yl]phenoxy]phenoxy]-2-methoxy-acetate] | 50 | 70 | 90 | 90 | 60 | 100
